{
  "source": "patent US12612363B2",
  "about": "“Recrystallisation of 5-methoxy-N,N-dimethyltryptamine(5-MeO-DMT)” (GH RESEARCH IRELAND LIMITED, priority 2019, dated 2026)",
  "test": "Solubility screen of 5-MeO-DMT in solvents at room temperature and reflux",
  "conditions": "for solubility: thermodynamic from solid",
  "description": "A solubility screen of 5-MeO-DMT was performed on a number of solvents at both room temperature and reflux.",
  "data": [
    {"smiles": "COc1ccc2[nH]cc(CCN(C)C)c2c1", "note": "[5-MeO-DMT, 5-Methoxy-N,N-dimethyltryptamine]", "values": [
      {"measurement": "solubility", "setting": "2-methyltetrahydrofuran, organic solvent or mixture, 5-MeO-DMT Solubility Ambient, solvent 2-Methyltetrahydrofuran (2-MeTHF), ambient (room temperature)", "value": 250, "unit": "mg/mL"},
      {"measurement": "solubility", "setting": "acetone, organic solvent or mixture, 5-MeO-DMT Solubility Ambient, solvent Acetone, ambient (room temperature)", "value": 530, "unit": "mg/mL"},
      {"measurement": "solubility", "setting": "ethanol, organic solvent or mixture, 5-MeO-DMT Solubility Ambient, solvent Ethanol, ambient (room temperature)", "value": 340, "unit": "mg/mL"},
      {"measurement": "solubility", "setting": "ethyl acetate, organic solvent or mixture, 5-MeO-DMT Solubility Ambient, solvent Ethyl Acetate, ambient (room temperature)", "value": 260, "unit": "mg/mL"},
      {"measurement": "solubility", "setting": "heptanes, organic solvent or mixture, 5-MeO-DMT Solubility Ambient, solvent Heptanes, ambient (room temperature)", "value": "< 50", "unit": "mg/mL"},
      {"measurement": "solubility", "setting": "heptanes, organic solvent or mixture, 5-MeO-DMT Solubility Reflux, solvent Heptanes, reflux", "value": "< 50", "unit": "mg/mL"},
      {"measurement": "solubility (in words)", "setting": "in MTBE at room temperature", "value": "not observed to be soluble"},
      {"measurement": "solubility (in words)", "setting": "in MTBE when the temperature of the solvent was increased", "value": "very soluble"},
      {"measurement": "solubility (in words)", "setting": "in heptanes", "value": "Poor solubility"},
      {"measurement": "solubility (in words)", "setting": "in water", "value": "Poor solubility"},
      {"measurement": "solubility", "setting": "isopropanol, organic solvent or mixture, 5-MeO-DMT Solubility Ambient, solvent Isopropanol (IPA), ambient (room temperature)", "value": 180, "unit": "mg/mL"},
      {"measurement": "solubility", "setting": "isopropyl acetate, organic solvent or mixture, 5-MeO-DMT Solubility Ambient, solvent Isopropyl acetate (IPAc), ambient (room temperature)", "value": 210, "unit": "mg/mL"},
      {"measurement": "solubility", "setting": "methyl tert-butyl ether, organic solvent or mixture, 5-MeO-DMT Solubility Ambient, solvent Methyl tert-butyl ether (MTBE), ambient (room temperature)", "value": "< 50", "unit": "mg/mL"},
      {"measurement": "solubility", "setting": "methyl tert-butyl ether, organic solvent or mixture, 5-MeO-DMT Solubility Reflux, solvent Methyl tert-butyl ether (MTBE), reflux", "value": 420, "unit": "mg/mL"},
      {"measurement": "5-MeO-DMT Solubility Ambient (vols.)", "setting": "solvent 2-Methyltetrahydrofuran (2-MeTHF), ambient (room temperature)", "value": 4.0, "unit": "vols."},
      {"measurement": "5-MeO-DMT Solubility Ambient (vols.)", "setting": "solvent Acetone, ambient (room temperature), volumes of solvent for complete dissolution of 200 mg", "value": 1.9, "unit": "vols."},
      {"measurement": "5-MeO-DMT Solubility Ambient (vols.)", "setting": "solvent Ethanol, ambient (room temperature)", "value": 2.9, "unit": "vols."},
      {"measurement": "5-MeO-DMT Solubility Ambient (vols.)", "setting": "solvent Ethyl Acetate, ambient (room temperature)", "value": 3.9, "unit": "vols."},
      {"measurement": "5-MeO-DMT Solubility Ambient (vols.)", "setting": "solvent Heptanes, ambient (room temperature)", "value": ">20", "unit": "vols."},
      {"measurement": "5-MeO-DMT Solubility Reflux (vols.)", "setting": "solvent Heptanes, reflux", "value": ">20", "unit": "vols."},
      {"measurement": "5-MeO-DMT Solubility Ambient (vols.)", "setting": "solvent Isopropanol (IPA), ambient (room temperature)", "value": 5.6, "unit": "vols."},
      {"measurement": "5-MeO-DMT Solubility Ambient (vols.)", "setting": "solvent Isopropyl acetate (IPAc), ambient (room temperature)", "value": 4.8, "unit": "vols."},
      {"measurement": "5-MeO-DMT Solubility Ambient (vols.)", "setting": "solvent Methyl tert-butyl ether (MTBE), ambient (room temperature)", "value": ">20", "unit": "vols."},
      {"measurement": "5-MeO-DMT Solubility Reflux (vols.)", "setting": "solvent Methyl tert-butyl ether (MTBE), reflux", "value": 2.4, "unit": "vols."},
      {"measurement": "5-MeO-DMT Solubility Ambient (vols.)", "setting": "solvent Toluene, ambient (room temperature)", "value": 5.1, "unit": "vols."},
      {"measurement": "5-MeO-DMT Solubility Ambient (vols.)", "setting": "solvent Water, ambient (room temperature)", "value": ">20", "unit": "vols."},
      {"measurement": "5-MeO-DMT Solubility Reflux (vols.)", "setting": "solvent Water, reflux", "value": ">20", "unit": "vols."},
      {"measurement": "solubility", "setting": "toluene, organic solvent or mixture, 5-MeO-DMT Solubility Ambient, solvent Toluene, ambient (room temperature)", "value": 200, "unit": "mg/mL"},
      {"measurement": "solubility", "setting": "water, 100 °C, 5-MeO-DMT Solubility Reflux, solvent Water, reflux", "value": "< 50", "unit": "mg/mL"},
      {"measurement": "solubility", "setting": "water, 5-MeO-DMT Solubility Ambient, solvent Water, ambient (room temperature)", "value": "< 50", "unit": "mg/mL"}
    ]}
  ]
}
